Several values for one entry are separate records, joined by “and”; a condition that tells them apart may be missing. Identical values can stand only once. Like-named read-outs stand apart in the source and are kept apart here.
Experiments:
3hibdhIV = assay: RT-PCR relative mRNA level of 3-HP catabolic gene
3hibdh = format: cell-based, microorganisms shown in Table 1

O=C(O)CCO [3-HP, 3-hydroxypropionic acid]
fold increase of 3hibdhIV mRNA expression (3hibdhIV; cells exposed to 25 mmol/L 3-HP vs no 3-HP, M9 medium, rpoD reference gene): 146 fold
3hibdhIV expression on addition of 3-HP (3hibdhIV; strain with C4 LysR gene removed): did not increase the expression
Relative mRNA level 3hibdh + 3-HP (3hibdh): 7.21 and 6.43
Relative mRNA level 3hibdh + 3-HP (3hibdh; Achromobacter denitrificans, + 3-HP): 6.40
Relative mRNA level 3hibdh + 3-HP (3hibdh; Acidovorax avenae subsp., + 3-HP): 5.97
Relative mRNA level 3hibdh + 3-HP (3hibdh; Acidovorax sp., + 3-HP): 6.76
Relative mRNA level 3hibdh + 3-HP (3hibdh; Acinetobacter baumannii, + 3-HP): 6.02
Relative mRNA level 3hibdh + 3-HP (3hibdh; Aeromonas hydrophilia, + 3-HP): 6.17
Relative mRNA level 3hibdh + 3-HP (3hibdh; Agrobacterium sp., + 3-HP): 6.27
Relative mRNA level 3hibdh + 3-HP (3hibdh; Alcaligenes faecalis, + 3-HP): 5.87
Relative mRNA level 3hibdh + 3-HP (3hibdh; Alcanivorax hongdengensis, + 3-HP): 6.74
Relative mRNA level 3hibdh + 3-HP (3hibdh; Alicychphilus denitrificans, + 3-HP): 7.01
Relative mRNA level 3hibdh + 3-HP (3hibdh; Alteromonas marina, + 3-HP): 6.09
Relative mRNA level 3hibdh + 3-HP (3hibdh; Amycolatopsis sp., + 3-HP): 5.96
Relative mRNA level 3hibdh + 3-HP (3hibdh; Anaeromyxobacter dehalogenans, + 3-HP): 6.43
Relative mRNA level 3hibdh + 3-HP (3hibdh; Azospirillum brasilensse, + 3-HP): 6.54
Relative mRNA level 3hibdh + 3-HP (3hibdh; Azotobacter vinelandii, + 3-HP): 6.73
Relative mRNA level 3hibdh + 3-HP (3hibdh; Beijerinckia indica, + 3-HP): 6.59
Relative mRNA level 3hibdh + 3-HP (3hibdh; Bordetella avium, + 3-HP): 6.04
Relative mRNA level 3hibdh + 3-HP (3hibdh; Bradyrhizobium japonicum, + 3-HP): 7.21
Relative mRNA level 3hibdh + 3-HP (3hibdh; Burkholderia ambifaria, + 3-HP): 5.94
Relative mRNA level 3hibdh + 3-HP (3hibdh; Castellaniella defragrans, + 3-HP): 7.43
Relative mRNA level 3hibdh + 3-HP (3hibdh; Catenulispora acidiphilia, + 3-HP): 5.84
Relative mRNA level 3hibdh + 3-HP (3hibdh; Caulobacter sp., + 3-HP): 5.96
Relative mRNA level 3hibdh + 3-HP (3hibdh; Chromobacterium violaceum, + 3-HP): 7.02
Relative mRNA level 3hibdh + 3-HP (3hibdh; Collimonas arenae, + 3-HP): 7.20
Relative mRNA level 3hibdh + 3-HP (3hibdh; Comamonas testosteroni, + 3-HP): 5.88
Relative mRNA level 3hibdh + 3-HP (3hibdh; Corynebacterium vitaeruminis, + 3-HP): 6.99
Relative mRNA level 3hibdh + 3-HP (3hibdh; Cupriavidus necator, + 3-HP): 6.84
Relative mRNA level 3hibdh + 3-HP (3hibdh; Curvibacter gracilus, + 3-HP): 5.76
Relative mRNA level 3hibdh + 3-HP (3hibdh; Delftia acidovorans, + 3-HP): 6.34
Relative mRNA level 3hibdh + 3-HP (3hibdh; Ferrimonas balearica, + 3-HP): 7.04
Relative mRNA level 3hibdh + 3-HP (3hibdh; Glaciecola nitratireducens, + 3-HP): 7.11
Relative mRNA level 3hibdh + 3-HP (3hibdh; Gordonia bronchialis, + 3-HP): 6.99
Relative mRNA level 3hibdh + 3-HP (3hibdh; Hahella chijuensis, + 3-HP): 6.81
Relative mRNA level 3hibdh + 3-HP (3hibdh; Halomonas elongata, + 3-HP): 5.41
Relative mRNA level 3hibdh + 3-HP (3hibdh; Hirschia litorea, + 3-HP): 6.19
Relative mRNA level 3hibdh + 3-HP (3hibdh; Idiomarina sp., + 3-HP): 7.21
Relative mRNA level 3hibdh + 3-HP (3hibdh; Janthinobacterium lividum, + 3-HP): 6.98
Relative mRNA level 3hibdh + 3-HP (3hibdh; Kitasatospora setae, + 3-HP): 6.46
Relative mRNA level 3hibdh + 3-HP (3hibdh; Kutzneria albida, + 3-HP): 5.96
Relative mRNA level 3hibdh + 3-HP (3hibdh; Methylobacterium sp., + 3-HP): 6.02
Relative mRNA level 3hibdh + 3-HP (3hibdh; Methylocystis sp., + 3-HP): 6.51
Relative mRNA level 3hibdh + 3-HP (3hibdh; Novosphingobium sp., + 3-HP): 5.98
Relative mRNA level 3hibdh + 3-HP (3hibdh; Oceanimonas smirnovii, + 3-HP): 6.44
Relative mRNA level 3hibdh + 3-HP (3hibdh; Paracoccus sp., + 3-HP): 6.32
Relative mRNA level 3hibdh + 3-HP (3hibdh; Parvibaculum lavamentivorans, + 3-HP): 7.31
Relative mRNA level 3hibdh + 3-HP (3hibdh; Phenylobacterium kunshanensis, + 3-HP): 7.43
Relative mRNA level 3hibdh + 3-HP (3hibdh; Photobacterium gaetbuleda, + 3-HP): 7.02
Relative mRNA level 3hibdh + 3-HP (3hibdh; Polynucleobacter necessarius asymbioticus, + 3-HP): 6.99
Relative mRNA level 3hibdh + 3-HP (3hibdh; Pseudoalteromonas carrgeenovora, + 3-HP): 5.76
Relative mRNA level 3hibdh + 3-HP (3hibdh; Pseudogulbenkiania sp., + 3-HP): 5.98
Relative mRNA level 3hibdh + 3-HP (3hibdh; Pseudomonas denitrificans ATCC13867, + 3-HP): 6.20
Relative mRNA level 3hibdh + 3-HP (3hibdh; Pseudomonas fluorescens, + 3-HP): 5.81
Relative mRNA level 3hibdh + 3-HP (3hibdh; Pseudomonas knackmussii, + 3-HP): 6.81
Relative mRNA level 3hibdh + 3-HP (3hibdh; Pseudomonas protegens, + 3-HP): 5.62
Relative mRNA level 3hibdh + 3-HP (3hibdh; Pseudoxanthomonas spadix, + 3-HP): 5.99
Relative mRNA level 3hibdh + 3-HP (3hibdh; Psychrobacter phenylpyruvicus, + 3-HP): 7.04
Relative mRNA level 3hibdh + 3-HP (3hibdh; Rhodomicrobium vannielli, + 3-HP): 7.01
Relative mRNA level 3hibdh + 3-HP (3hibdh; Segniliparus rotundus, + 3-HP): 5.81
Relative mRNA level 3hibdh + 3-HP (3hibdh; Shewanella oneidensis, + 3-HP): 5.81
Relative mRNA level 3hibdh + 3-HP (3hibdh; Simiduia agarovorans, + 3-HP): 5.76
Relative mRNA level 3hibdh + 3-HP (3hibdh; Sinorhizobium meliloti, + 3-HP): 5.79
Relative mRNA level 3hibdh + 3-HP (3hibdh; Sphingobium chlorophenolicum, + 3-HP): 5.99
Relative mRNA level 3hibdh + 3-HP (3hibdh; Sphingomonas wittichii, + 3-HP): 7.02
Relative mRNA level 3hibdh + 3-HP (3hibdh; Sphingopyxis alaskensis, + 3-HP): 7.00
Relative mRNA level 3hibdh + 3-HP (3hibdh; Stenotrophomonas maltophilia, + 3-HP): 6.02
Relative mRNA level 3hibdh + 3-HP (3hibdh; Streptomyces nodosus, + 3-HP): 6.72
Relative mRNA level 3hibdh + 3-HP (3hibdh; Tatlockia micdadei, + 3-HP): 6.61
Relative mRNA level 3hibdh + 3-HP (3hibdh; Thalassospira xiamenensis, + 3-HP): 7.02
Relative mRNA level 3hibdh + 3-HP (3hibdh; Variovorax paradoxus, + 3-HP): 6.59
Relative mRNA level 3hibdh + 3-HP (3hibdh; Verminephrobacter eiseniae, + 3-HP): 6.43
Relative mRNA level 3hibdh + 3-HP (3hibdh; Vibrio furnissii, + 3-HP): 6.03
Relative mRNA level 3hibdh + 3-HP (3hibdh; Xanthobacter autotrophicus, + 3-HP): 6.23
Relative mRNA level 3hibdh + 3-HP (3hibdh; Xanthomonas campestri, + 3-HP): 5.81
increase of expression of 3hibdh by 3-HP (3hibdh; in the microorganisms (Table 7), 25 mM 3-HP in nutrient medium): 14 fold

— US10961539B2, “Promoter system inducing expression by 3-hydroxypropionic acid and method for biological production of 3-hydroxypropionic acid using same” (NOROO IC Co., Ltd., priority 2015, dated 2021)
